Test results reported in ChEMBL document CHEMBL4507302, “Data for DCP probe TP-020” (2021).

Legend:
[1] = test system: ALK tyrosine kinase receptor (Homo sapiens), Q9UM73 [C1156Y]; settings: Compound concentration 1000.0 nM
[2] = test system: Mast/stem cell growth factor receptor Kit (Homo sapiens), P10721 [A829P]; settings: Compound concentration 1000.0 nM
[3] = molecular target: Interferon-induced, double-stranded RNA-activated protein kinase (Homo sapiens) (UniProt P19525); settings: Compound concentration 1000.0 nM
[4] = molecular target: Mitogen-activated protein kinase kinase kinase 11 (Homo sapiens) (UniProt Q16584); settings: Compound concentration 1000.0 nM
Mitogen-activated protein kinase kinase kinase 11 (Homo sapiens), sequence (Q16584 whole entry, looked up): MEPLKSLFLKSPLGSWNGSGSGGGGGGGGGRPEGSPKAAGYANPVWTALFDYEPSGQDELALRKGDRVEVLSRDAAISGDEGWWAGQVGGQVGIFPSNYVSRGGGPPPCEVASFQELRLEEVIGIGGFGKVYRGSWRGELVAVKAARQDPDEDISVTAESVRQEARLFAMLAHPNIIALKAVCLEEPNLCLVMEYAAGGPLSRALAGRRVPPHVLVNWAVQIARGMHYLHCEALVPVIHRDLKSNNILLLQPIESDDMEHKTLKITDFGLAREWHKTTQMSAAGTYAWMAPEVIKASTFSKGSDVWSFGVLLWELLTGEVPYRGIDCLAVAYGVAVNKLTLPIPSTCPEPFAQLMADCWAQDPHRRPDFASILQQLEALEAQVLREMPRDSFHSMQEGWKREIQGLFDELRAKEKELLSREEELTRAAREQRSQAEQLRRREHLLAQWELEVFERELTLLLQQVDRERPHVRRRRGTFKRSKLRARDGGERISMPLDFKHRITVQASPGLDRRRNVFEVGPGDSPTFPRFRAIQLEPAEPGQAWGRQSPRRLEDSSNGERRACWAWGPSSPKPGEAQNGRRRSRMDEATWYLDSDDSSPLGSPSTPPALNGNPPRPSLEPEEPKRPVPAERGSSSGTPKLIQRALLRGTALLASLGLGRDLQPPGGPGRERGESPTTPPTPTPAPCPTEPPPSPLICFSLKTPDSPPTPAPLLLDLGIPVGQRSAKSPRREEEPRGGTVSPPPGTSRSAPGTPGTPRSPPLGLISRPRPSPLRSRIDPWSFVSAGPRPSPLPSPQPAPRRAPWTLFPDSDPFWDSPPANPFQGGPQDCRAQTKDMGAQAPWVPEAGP

[5] = molecular target: Serine/threonine-protein kinase PAK 6 (Homo sapiens) (UniProt Q9NQU5); settings: Compound concentration 1000.0 nM
[6] = molecular target: Megakaryocyte-associated tyrosine-protein kinase (Homo sapiens) (UniProt P42679); settings: Compound concentration 1000.0 nM
[7] = molecular target: Activated CDC42 kinase 1 (Homo sapiens) (UniProt Q07912); settings: Compound concentration 1000.0 nM
[8] = molecular target: Tyrosine-protein kinase receptor Tie-1 (Homo sapiens) (UniProt P35590); settings: Compound concentration 1000.0 nM
[9] = molecular target: Cyclin-dependent kinase 18 (Homo sapiens) (UniProt Q07002); settings: Compound concentration 1000.0 nM
[10] = molecular target: Mitogen-activated protein kinase kinase kinase kinase 4 (Homo sapiens) (UniProt O95819); settings: Compound concentration 1000.0 nM
[11] = molecular target: Tyrosine-protein kinase Fer (Homo sapiens) (UniProt P16591); settings: Compound concentration 1000.0 nM
[12] = molecular target: Serine/threonine-protein kinase BRSK1 (Homo sapiens) (UniProt Q8TDC3); settings: Compound concentration 1000.0 nM
[13] = molecular target: Calcium/calmodulin-dependent protein kinase type II subunit alpha (Homo sapiens) (UniProt Q9UQM7); settings: Compound concentration 1000.0 nM
[14] = molecular target: Homeodomain-interacting protein kinase 1 (Homo sapiens) (UniProt Q86Z02); settings: Compound concentration 1000.0 nM
[15] = molecular target: Citron Rho-interacting kinase (Homo sapiens) (UniProt O14578); settings: Compound concentration 1000.0 nM
[16] = molecular target: Cyclin-dependent kinase 19 (Homo sapiens) (UniProt Q9BWU1); settings: Compound concentration 1000.0 nM
[17] = molecular target: Casein kinase I isoform gamma-2 (Homo sapiens) (UniProt P78368); settings: Compound concentration 1000.0 nM
[18] = molecular target: D(4) dopamine receptor (Homo sapiens) (UniProt P21917); settings: Compound concentration 10.0 uM
[19] = molecular target: Tyrosine-protein kinase BTK (Homo sapiens) (UniProt Q06187); settings: Compound concentration 1000.0 nM
Tyrosine-protein kinase BTK (Homo sapiens), sequence (Q06187 whole entry): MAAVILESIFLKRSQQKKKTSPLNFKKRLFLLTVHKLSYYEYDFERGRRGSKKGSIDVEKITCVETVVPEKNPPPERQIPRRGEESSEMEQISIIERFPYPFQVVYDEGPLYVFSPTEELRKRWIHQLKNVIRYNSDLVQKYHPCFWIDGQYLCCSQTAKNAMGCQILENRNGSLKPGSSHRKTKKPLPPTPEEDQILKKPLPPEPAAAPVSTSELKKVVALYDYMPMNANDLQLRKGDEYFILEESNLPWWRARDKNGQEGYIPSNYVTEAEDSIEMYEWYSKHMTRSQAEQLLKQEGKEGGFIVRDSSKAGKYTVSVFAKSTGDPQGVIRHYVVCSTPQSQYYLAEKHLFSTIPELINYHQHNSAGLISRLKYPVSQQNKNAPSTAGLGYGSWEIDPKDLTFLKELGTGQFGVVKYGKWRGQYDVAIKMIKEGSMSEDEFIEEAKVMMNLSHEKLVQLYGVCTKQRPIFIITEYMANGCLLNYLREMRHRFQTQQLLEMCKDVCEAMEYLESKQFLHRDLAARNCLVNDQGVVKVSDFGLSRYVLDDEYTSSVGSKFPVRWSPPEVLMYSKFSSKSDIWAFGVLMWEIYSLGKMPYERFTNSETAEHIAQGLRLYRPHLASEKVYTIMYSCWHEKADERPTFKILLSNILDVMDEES

[20] = molecular target: Non-receptor tyrosine-protein kinase TNK1 (Homo sapiens) (UniProt Q13470); settings: Compound concentration 1000.0 nM
[21] = molecular target: NUAK family SNF1-like kinase 1 (Homo sapiens) (UniProt O60285); settings: Compound concentration 1000.0 nM
[22] = molecular target: Ribosomal protein S6 kinase alpha-4 (Homo sapiens) (UniProt O75676); settings: Compound concentration 1000.0 nM
[23] = molecular target: Serine/threonine-protein kinase PAK 3 (Homo sapiens) (UniProt O75914); settings: Compound concentration 1000.0 nM
[24] = molecular target: Rho-associated protein kinase 2 (Homo sapiens) (UniProt O75116); settings: Compound concentration 1000.0 nM
Rho-associated protein kinase 2 (Homo sapiens), sequence (O75116 whole entry, looked up): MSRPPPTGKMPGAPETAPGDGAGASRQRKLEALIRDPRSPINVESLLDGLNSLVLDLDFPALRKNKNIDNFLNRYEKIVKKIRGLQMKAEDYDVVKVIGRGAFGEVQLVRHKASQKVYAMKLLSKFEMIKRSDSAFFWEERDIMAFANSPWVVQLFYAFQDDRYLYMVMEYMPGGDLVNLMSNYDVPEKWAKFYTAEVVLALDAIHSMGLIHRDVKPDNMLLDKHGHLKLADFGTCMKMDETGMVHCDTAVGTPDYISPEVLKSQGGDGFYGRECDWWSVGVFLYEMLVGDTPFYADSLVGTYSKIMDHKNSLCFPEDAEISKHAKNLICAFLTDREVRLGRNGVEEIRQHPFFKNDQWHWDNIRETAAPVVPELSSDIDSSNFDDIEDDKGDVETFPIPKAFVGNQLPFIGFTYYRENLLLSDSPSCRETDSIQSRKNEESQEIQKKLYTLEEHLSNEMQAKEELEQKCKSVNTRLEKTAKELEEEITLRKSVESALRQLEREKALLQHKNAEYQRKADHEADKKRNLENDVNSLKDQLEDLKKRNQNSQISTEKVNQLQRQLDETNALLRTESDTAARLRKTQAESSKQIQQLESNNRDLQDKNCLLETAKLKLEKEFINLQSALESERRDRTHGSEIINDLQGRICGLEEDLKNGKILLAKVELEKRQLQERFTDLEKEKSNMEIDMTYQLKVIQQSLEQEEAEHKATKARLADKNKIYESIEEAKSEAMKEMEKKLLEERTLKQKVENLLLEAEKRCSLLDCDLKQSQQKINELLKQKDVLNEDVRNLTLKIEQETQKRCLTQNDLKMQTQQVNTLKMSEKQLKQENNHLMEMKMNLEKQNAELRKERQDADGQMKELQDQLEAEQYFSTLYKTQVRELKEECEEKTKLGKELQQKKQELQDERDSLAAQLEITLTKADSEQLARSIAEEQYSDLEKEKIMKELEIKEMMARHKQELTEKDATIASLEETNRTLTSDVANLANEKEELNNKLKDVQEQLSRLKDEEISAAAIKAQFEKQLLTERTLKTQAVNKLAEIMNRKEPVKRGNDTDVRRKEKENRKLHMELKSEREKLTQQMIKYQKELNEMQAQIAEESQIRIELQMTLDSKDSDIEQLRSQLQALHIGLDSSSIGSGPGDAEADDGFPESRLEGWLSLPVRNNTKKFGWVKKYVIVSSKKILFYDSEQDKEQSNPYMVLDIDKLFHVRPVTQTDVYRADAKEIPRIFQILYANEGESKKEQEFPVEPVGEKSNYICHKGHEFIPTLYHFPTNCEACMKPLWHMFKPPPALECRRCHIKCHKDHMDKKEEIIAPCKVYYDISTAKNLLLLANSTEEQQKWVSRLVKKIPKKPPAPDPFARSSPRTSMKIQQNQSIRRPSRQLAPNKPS

[25] = molecular target: cAMP-dependent protein kinase catalytic subunit beta (Homo sapiens) (UniProt P22694); settings: Compound concentration 1000.0 nM
[26] = molecular target: Serine/threonine-protein kinase 24 (Homo sapiens) (UniProt Q9Y6E0); settings: Compound concentration 1000.0 nM
Serine/threonine-protein kinase 24 (Homo sapiens), sequence (Q9Y6E0 whole entry, looked up): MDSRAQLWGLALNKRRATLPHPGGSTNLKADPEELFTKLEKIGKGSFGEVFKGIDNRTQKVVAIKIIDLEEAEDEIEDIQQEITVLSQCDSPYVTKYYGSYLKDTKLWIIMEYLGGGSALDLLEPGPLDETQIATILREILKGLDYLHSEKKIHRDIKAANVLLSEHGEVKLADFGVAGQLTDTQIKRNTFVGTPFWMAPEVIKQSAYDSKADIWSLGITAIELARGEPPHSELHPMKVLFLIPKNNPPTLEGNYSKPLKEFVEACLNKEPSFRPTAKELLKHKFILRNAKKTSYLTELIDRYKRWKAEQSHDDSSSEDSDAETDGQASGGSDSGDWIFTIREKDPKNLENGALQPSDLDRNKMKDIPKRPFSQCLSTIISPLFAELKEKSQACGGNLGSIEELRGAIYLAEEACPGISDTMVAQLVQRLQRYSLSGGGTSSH

[27] = molecular target: Serine/threonine-protein kinase Sgk3 (Homo sapiens) (UniProt Q96BR1); settings: Compound concentration 1000.0 nM
[28] = molecular target: Serine/threonine-protein kinase MARK2 (Homo sapiens) (UniProt Q7KZI7); settings: Compound concentration 1000.0 nM
[29] = molecular target: Serine/threonine-protein kinase D2 (Homo sapiens) (UniProt Q9BZL6); settings: Compound concentration 1000.0 nM
[30] = molecular target: Ephrin type-B receptor 2 (Homo sapiens) (UniProt P29323); settings: Compound concentration 1000.0 nM
[31] = test system: Tyrosine-protein kinase ABL1 (Homo sapiens), P00519 [F317L]; settings: Compound concentration 1000.0 nM
[32] = molecular target: Serine/threonine-protein kinase MRCK alpha (Homo sapiens) (UniProt Q5VT25); settings: Compound concentration 1000.0 nM
[33] = molecular target: Mitogen-activated protein kinase 14 (Homo sapiens) (UniProt Q16539); settings: Compound concentration 1000.0 nM
[34] = molecular target: Mitogen-activated protein kinase 10 (Homo sapiens) (UniProt P53779); settings: Compound concentration 1000.0 nM
[35] = molecular target: TRAF2 and NCK-interacting protein kinase (Homo sapiens) (UniProt Q9UKE5); settings: Compound concentration 1000.0 nM
[36] = molecular target: Histamine H4 receptor (Homo sapiens) (UniProt Q9H3N8); settings: Compound concentration 10.0 uM
[37] = molecular target: MAP kinase-interacting serine/threonine-protein kinase 2 (Homo sapiens) (UniProt Q9HBH9); settings: Compound concentration 1000.0 nM
[38] = test system: Proto-oncogene tyrosine-protein kinase receptor Ret (Homo sapiens), P07949 [V804M]; settings: Compound concentration 1000.0 nM
[39] = molecular target: Activin receptor type-2A (Homo sapiens) (UniProt P27037); settings: Compound concentration 1000.0 nM
[40] = molecular target: Interleukin-1 receptor-associated kinase 1 (Homo sapiens) (UniProt P51617); settings: Compound concentration 1000.0 nM
[41] = molecular target: Serine/threonine-protein kinase NIM1 (Homo sapiens) (UniProt Q8IY84); settings: Compound concentration 1000.0 nM
Serine/threonine-protein kinase NIM1 (Homo sapiens), sequence (Q8IY84 whole entry): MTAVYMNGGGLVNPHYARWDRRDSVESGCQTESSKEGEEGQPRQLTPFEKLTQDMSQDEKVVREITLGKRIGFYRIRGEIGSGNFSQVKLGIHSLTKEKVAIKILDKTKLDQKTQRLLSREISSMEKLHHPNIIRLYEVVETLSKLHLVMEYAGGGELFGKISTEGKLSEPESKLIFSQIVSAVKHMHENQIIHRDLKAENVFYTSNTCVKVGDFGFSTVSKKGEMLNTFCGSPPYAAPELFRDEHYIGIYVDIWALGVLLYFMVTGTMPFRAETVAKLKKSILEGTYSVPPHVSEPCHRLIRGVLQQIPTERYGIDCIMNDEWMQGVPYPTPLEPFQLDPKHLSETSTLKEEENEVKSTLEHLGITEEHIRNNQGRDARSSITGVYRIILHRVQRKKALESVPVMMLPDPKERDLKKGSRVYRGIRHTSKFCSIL

[42] = molecular target: Misshapen-like kinase 1 (Homo sapiens) (UniProt Q8N4C8); settings: Compound concentration 1000.0 nM
Misshapen-like kinase 1 (Homo sapiens), sequence (Q8N4C8 whole entry, looked up): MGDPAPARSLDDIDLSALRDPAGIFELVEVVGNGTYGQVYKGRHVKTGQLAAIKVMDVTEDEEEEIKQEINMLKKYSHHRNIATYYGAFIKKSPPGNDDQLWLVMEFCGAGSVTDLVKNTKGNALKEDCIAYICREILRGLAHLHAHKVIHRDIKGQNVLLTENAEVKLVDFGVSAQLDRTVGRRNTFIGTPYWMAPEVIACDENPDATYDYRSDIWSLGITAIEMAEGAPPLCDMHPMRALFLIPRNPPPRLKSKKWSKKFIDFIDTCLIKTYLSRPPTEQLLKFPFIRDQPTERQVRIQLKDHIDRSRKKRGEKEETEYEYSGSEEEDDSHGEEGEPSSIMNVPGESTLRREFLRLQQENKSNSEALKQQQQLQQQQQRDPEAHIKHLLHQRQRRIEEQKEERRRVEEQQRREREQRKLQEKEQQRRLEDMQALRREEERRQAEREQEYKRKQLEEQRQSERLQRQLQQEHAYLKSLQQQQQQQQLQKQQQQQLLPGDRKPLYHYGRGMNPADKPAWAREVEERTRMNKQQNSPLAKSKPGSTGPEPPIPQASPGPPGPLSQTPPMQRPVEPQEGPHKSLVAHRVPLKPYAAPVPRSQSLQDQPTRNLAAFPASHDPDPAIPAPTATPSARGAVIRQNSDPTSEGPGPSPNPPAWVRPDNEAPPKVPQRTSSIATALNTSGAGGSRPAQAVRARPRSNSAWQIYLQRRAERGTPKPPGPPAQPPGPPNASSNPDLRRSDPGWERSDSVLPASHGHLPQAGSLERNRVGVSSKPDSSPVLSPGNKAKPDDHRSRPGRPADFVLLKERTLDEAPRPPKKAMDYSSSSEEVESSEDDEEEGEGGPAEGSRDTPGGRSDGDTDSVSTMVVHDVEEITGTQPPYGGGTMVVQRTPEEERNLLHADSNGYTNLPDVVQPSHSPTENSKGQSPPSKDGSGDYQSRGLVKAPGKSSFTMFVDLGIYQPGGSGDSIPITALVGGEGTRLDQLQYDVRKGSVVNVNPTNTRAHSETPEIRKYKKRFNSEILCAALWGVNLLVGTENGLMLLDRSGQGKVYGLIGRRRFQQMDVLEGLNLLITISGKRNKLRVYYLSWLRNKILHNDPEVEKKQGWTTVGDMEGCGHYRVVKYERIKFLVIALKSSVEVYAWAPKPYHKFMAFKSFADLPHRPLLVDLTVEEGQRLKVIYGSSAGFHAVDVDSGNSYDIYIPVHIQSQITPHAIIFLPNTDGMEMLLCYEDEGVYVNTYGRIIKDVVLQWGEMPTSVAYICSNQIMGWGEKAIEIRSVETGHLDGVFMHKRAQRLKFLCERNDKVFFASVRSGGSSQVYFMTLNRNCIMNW

[43] = molecular target: Serine/threonine-protein kinase N1 (Homo sapiens) (UniProt Q16512); settings: Compound concentration 1000.0 nM
[44] = molecular target: Mitogen-activated protein kinase kinase kinase 1 (Homo sapiens) (UniProt Q13233); settings: Compound concentration 1000.0 nM
[45] = molecular target: Proto-oncogene tyrosine-protein kinase Src (Homo sapiens) (UniProt P12931); settings: Compound concentration 1000.0 nM

Question: With `Nc1cnc(N2CCc3cc(S(=O)(=O)Nc4c(F)cc(Cl)cc4F)cc(N4CCCC4=O)c32)nc1` as the compound, how does the residual activity [1] read?
Answer: 100%

Question: What about the residual activity [2] of the same compound?
Answer: 100%

Question: And the residual activity [3]?
Answer: 41%

Question: And the residual activity [4]?
Answer: 100%

Question: What about the residual activity [5] of the same compound?
Answer: 100%

Question: What about the residual activity [6] of the same compound?
Answer: 100%

Question: And the residual activity [7]?
Answer: 91%

Question: And the residual activity [8]?
Answer: 100%

Question: What about the residual activity [9] of the same compound?
Answer: 100%

Question: What about the residual activity [10] of the same compound?
Answer: 61%

Question: And the residual activity [11]?
Answer: 100%

Question: And the residual activity [12]?
Answer: 100%

Question: What about the residual activity [13] of the same compound?
Answer: 92%

Question: What about the residual activity [14] of the same compound?
Answer: 91%

Question: And the residual activity [15]?
Answer: 91%

Question: And the residual activity [16]?
Answer: 100%

Question: And the residual activity [17]?
Answer: 88%

Question: What about the inhibition [18] of the same compound?
Answer: -5.02%

Question: And the residual activity [19]?
Answer: 100%

Question: And the residual activity [20]?
Answer: 100%

Question: And the residual activity [21]?
Answer: 100%

Question: What about the residual activity [22] of the same compound?
Answer: 96%

Question: And the residual activity [23]?
Answer: 100%

Question: What about the residual activity [24] of the same compound?
Answer: 100%

Question: What about the residual activity [25] of the same compound?
Answer: 100%

Question: What about the residual activity [26] of the same compound?
Answer: 100%

Question: What about the residual activity [27] of the same compound?
Answer: 100%

Question: And the residual activity [28]?
Answer: 74%

Question: And the residual activity [29]?
Answer: 100%

Question: What about the residual activity [30] of the same compound?
Answer: 87%

Question: And the residual activity [31]?
Answer: 78%

Question: And the residual activity [32]?
Answer: 100%

Question: What about the residual activity [33] of the same compound?
Answer: 100%

Question: What about the residual activity [34] of the same compound?
Answer: 94%

Question: And the residual activity [35]?
Answer: 100%

Question: And the inhibition [36]?
Answer: -0.37%

Question: And the residual activity [37]?
Answer: 100%

Question: What about the residual activity [38] of the same compound?
Answer: 100%

Question: And the residual activity [39]?
Answer: 67%

Question: What about the residual activity [40] of the same compound?
Answer: 100%

Question: And the residual activity [41]?
Answer: 100%

Question: What about the residual activity [42] of the same compound?
Answer: 100%

Question: What about the residual activity [43] of the same compound?
Answer: 95%

Question: What about the residual activity [44] of the same compound?
Answer: 100%

Question: And the residual activity [45]?
Answer: 99%

Question: With `Cn1nc(C(F)(F)F)cc1-c1cnc(N2CCc3cc(S(=O)(=O)Nc4c(F)cc(Cl)cc4F)cc(N4CCCC4=O)c32)nc1` [TP-020] as the compound, how does the residual activity [1] read?
Answer: 72%

Question: And the residual activity [2]?
Answer: 80%

Question: And the residual activity [3]?
Answer: 100%

Question: What about the residual activity [4] of the same compound?
Answer: 100%

Question: What about the residual activity [5] of the same compound?
Answer: 100%

Question: And the residual activity [6]?
Answer: 91%

Question: What about the residual activity [7] of the same compound?
Answer: 100%

Question: What about the residual activity [8] of the same compound?
Answer: 100%

Question: And the residual activity [9]?
Answer: 100%

Question: What about the residual activity [10] of the same compound?
Answer: 83%

Question: And the residual activity [11]?
Answer: 100%

Question: And the residual activity [12]?
Answer: 100%

Question: What about the residual activity [13] of the same compound?
Answer: 75%

Question: And the residual activity [14]?
Answer: 87%

Question: And the residual activity [15]?
Answer: 100%

Question: And the residual activity [16]?
Answer: 100%

Question: What about the residual activity [17] of the same compound?
Answer: 100%

Question: What about the inhibition [18] of the same compound?
Answer: 9.09%

Question: And the residual activity [19]?
Answer: 85%

Question: What about the residual activity [20] of the same compound?
Answer: 100%

Question: And the residual activity [21]?
Answer: 89%

Question: What about the residual activity [22] of the same compound?
Answer: 85%

Question: And the residual activity [23]?
Answer: 77%

Question: What about the residual activity [24] of the same compound?
Answer: 85%

Question: What about the residual activity [25] of the same compound?
Answer: 81%

Question: And the residual activity [26]?
Answer: 90%

Question: What about the residual activity [27] of the same compound?
Answer: 78%

Question: What about the residual activity [28] of the same compound?
Answer: 100%

Question: What about the residual activity [29] of the same compound?
Answer: 95%

Question: And the residual activity [30]?
Answer: 100%

Question: And the residual activity [31]?
Answer: 94%

Question: And the residual activity [32]?
Answer: 100%

Question: And the residual activity [33]?
Answer: 100%

Question: And the residual activity [34]?
Answer: 100%

Question: And the residual activity [35]?
Answer: 100%

Question: And the inhibition [36]?
Answer: 10.9%

Question: And the residual activity [37]?
Answer: 94%

Question: What about the residual activity [38] of the same compound?
Answer: 98%

Question: What about the residual activity [39] of the same compound?
Answer: 83%

Question: What about the residual activity [40] of the same compound?
Answer: 72%

Question: What about the residual activity [41] of the same compound?
Answer: 80%

Question: What about the residual activity [42] of the same compound?
Answer: 99%

Question: And the residual activity [43]?
Answer: 100%

Question: What about the residual activity [44] of the same compound?
Answer: 70%

Question: And the residual activity [45]?
Answer: 100%
